Patent US20090258069A1, “Delivery of LFA-1 antagonists to the gastrointestinal system” (priority 2008, published 2009)
Where two headings read alike, the source gives them in different places.

Experiments:
[1] = 13-week IV toxicity study in rats with 4-week recovery (with plasma exposure); conditions: rat; for AUC: AUC0-n
[2] = system: human mononuclear cells (PBMC) stimulated with staphylococcal enterotoxin B (SEB); assay: cells; type: cell-based
[3] = Plasma PK in rats after a single IV bolus dose; type: in vivo, rat; conditions: for AUC: read-out: AUC0-n
[4] = system: healthy adults; assay: Phase 1 clinical trial of Compound 12 Ophthalmic Solution, safety and tolerability; type: in vivo, human
Excerpt: The objectives of the trial were to measure safety and tolerability, and pharmacokinetics in tear and plasma. The dosing schedule (OU; Oculus Uterque (each eye or both eyes)) was divided into 3 periods, each separated by a 72-hour wash out interval: once/day×1 day (drug one eye; placebo fellow eye), twice/day×10 days, and thrice/day×10 days, 14-day observation. Slit lamp examination of the eye, BCVA (Best Corrected Visual Acuity), STTs (Schirmer Tear Test), TBUT (Tear Break-Up Time), IOP (Intraocular pressure) were assessed at screening and the beginning and end of each period. For each cohort, masked safety data was reviewed by a Safety Committee prior to allowing dose escalation of the next cohort. A total of 2856 doses (102 drops/subject) were administered over 1148 total subject study days (41 study days/subject) in 56 eyes. All subjects in all cohorts completed the study, and no study drug doses were missed.

[5] = Pilot ocular tolerance of topically administered Compound 12 in dogs-PK; type: in vivo, dog; conditions: dog, vitreous fluid, topical; TID for three days with 3.5 mg/eye (10%); ranged from BLOQ; read-out: levels in the vitreous fluid
[6] = system: dogs; assay: as above; type: in vivo, dog; conditions: up to 10% strength at 3 doses/day
[7] = system: dogs (beagles); assay: Cardiovascular effects in conscious telemetry-instrumented dogs, IV bolus; type: in vivo, dog; conditions: IV bolus injection
[8] = Single dose ocular and IV ADME with [^14C]-Compound 12 in dogs; type: in vivo, dog
Excerpt: Following an ocular dose, the highest average [^14C]-Compound 12 levels were detected in anterior ocular tissues (see FIG. 16). […] No differences in results from male and female dogs were observed.

[9] = system: dogs; assay: 13-week ocular toxicity study in dogs with 4-week recovery (with TK); conditions: (3%)
[10] = Tear PK after a single topical ocular instillation in rabbits
[11] = Phase 1 clinical trial, tear PK; type: in vivo, human
Excerpt: A 48-hour post-dose sample was obtained following Day 1, 14, and 27.

[12] = Pilot rat dermal study; type: in vivo; conditions: 1% lotion, ointment, gel, DMSO; TID 7 days, 10 mg/cm^2 on about 6 cm^2
Protocol: The safety and tolerability of prototypical dermal formulations (1% lotion, ointment, and gel) were assessed on rats given TID for seven consecutive days—approximately 6 cm^2 with 10 mg/cm^2.

[13] = system: rats; assay: CNS effects in rats, single bolus IV injection; type: in vivo, rat
Excerpt: No effect on any other parameters was observed.

[14] = in vivo; conditions: rabbit, topical or ocular
[15] = system: rabbits; assay: 13-week ocular toxicity study in rabbits with 4-week recovery (with TK); conditions: (3%)
[16] = Solubility studies; type: physicochemical
[17] = Skin transport studies on microtomed human skin; type: in vitro ADME; conditions: 1% (w/w) prototypes; [^14C]-Compound 12
Excerpt: Prototypes have been developed and tested on microtomed human skin from elective surgery at 1% (w/w). The forms include gels, ointment, or lotion. […] Skin transport studies performed with LC/MS/MS analysis indicate high Compound 12 levels in epidermis and dermis and low levels in the receiver.

[18] = 3 mg/kg, 3 mg/kg daily IV bolus, Day 1
[19] = 3 mg/kg, 3 mg/kg daily IV bolus, Week 13
[20] = 10 mg/kg, 10 mg/kg daily IV bolus, Day 1
[21] = 10 mg/kg, 10 mg/kg daily IV bolus, Week 13
[22] = 30 mg/kg, 30 mg/kg daily IV bolus, Day 1
[23] = 30 mg/kg, 30 mg/kg daily IV bolus, Week 13
[24] = 30.0 mg/kg single IV bolus, from rat safety pharmacology study
[25] = rat, 10.0 mg/kg single IV bolus
[26] = rabbit, in vivo, topical or ocular, 1.05 mg
[27] = single instillation of 0.1, 1.0 or 3.0% dose strength

## CS(=O)(=O)c1cccc(C[C@H](NC(=O)c2c(Cl)cc3c(c2Cl)CCN(C(=O)c2ccc4ccoc4c2)C3)C(=O)O)c1 [Compound 12]
[1]; [18]
  AUC: 148 ng·h/mL
  Cmax: 305 ng/mL
[1]; [19]
  AUC: 241 ng·h/mL
  Cmax: 378 ng/mL
[1]; [20]
  AUC: 536 ng·h/mL
  Cmax: 1050 ng/mL
[1]; [21]
  AUC: 907 ng·h/mL
  Cmax: 1690 ng/mL
[1]; [22]
  AUC: 2350 ng·h/mL
  Cmax: 5120 ng/mL
[1]; [23]
  AUC: 7470 ng·h/mL
  Cmax: 16900 ng/mL
[2]; read-out: EC50 Cytokine Release GM-CSF
  EC50: 0.545 µM
[2]; read-out: EC50 Cytokine Release IFNγ
  EC50: 0.0016 µM
[2]; read-out: EC50 Cytokine Release IL-1α
  EC50: 0.24 µM
[2]; read-out: EC50 Cytokine Release IL-1β
  EC50: 0.36 µM
[2]; read-out: EC50 Cytokine Release IL-2
  EC50: 0.0018 µM
[2]; read-out: EC50 Cytokine Release IL-3
  EC50: 52.2 µM
[2]; read-out: EC50 Cytokine Release IL-4
  EC50: 0.143 µM
[2]; read-out: EC50 Cytokine Release IL-5
  EC50: 0.11 µM
[2]; read-out: EC50 Cytokine Release IL-6
  EC50: 43.5 µM
[2]; read-out: EC50 Cytokine Release IL-10
  EC50: 0.147 µM
[2]; read-out: EC50 Cytokine Release IL-12p40
  EC50: > 1000 µM
[2]; read-out: EC50 Cytokine Release IL-13
  EC50: 0.36 µM
[2]; read-out: EC50 Cytokine Release IP-10
  EC50: 1.16 µM
[2]; read-out: EC50 Cytokine Release MCP-1
  EC50: 0.005 µM
[2]; read-out: EC50 Cytokine Release MIP-1α
  EC50: 0.02 µM
[2]; read-out: EC50 Cytokine Release TNF-α
  EC50: 0.076 µM
[2]; read-out: IC50 values in in vitro cell assays (cell attachment and SEB IL-2 release)
  IC50: 2 nM
[3]; [24]
  Cmax: 5120 ng/mL
  AUC: 2350 ng·h/mL
[3]; [25]
  Cmax: 1060 ng/mL
  MRT: 55.2 min
  clearance: 173 mL/min/kg
  half-life: 226 min
  AUC: 728 ng·h/mL
[3]; rat, 10.0 mg/kg single IV bolus, read-out: Vss
  Vd: 9.56 L/kg
[4]; 0.1%, 0.3%, 1% and 5% dose strengths, any dose regimen
  deaths, discontinuations, serious or severe AEs considered related to drug: No deaths, discontinuations, serious or severe ocular or non-ocular AEs
[4]; dose strengths up to 5% TID
  overall safety and tolerability, topical ocular instillation: safe and well-tolerated
[4]; human, in vivo
  localized ocular irritation or infection: no evidence of localized ocular irritation or infection
[4]; throughout the trial
  Blood pressure, heart rate, respiratory rate, temperature, body weight, and EKG results: within normal ranges
  Total lymphocyte count, CD3, CD4, and CD8 cell counts: within normal ranges with no evidence of lymphocyte or neutrophil suppression
[5]
  concentration at 3 days: ≤ 18 ng/mL
[6]
  ocular safety and tolerability: safe and well tolerated
[7]
  effects on electrocardiography or hemodynamic parameters: No effects
[8]; dog, for 16 hrs
  levels in conjunctiva/cornea: greater than 1 micromolar
[8]; up to 168 hrs post-dose, 3 mg/eye or 3 mg/dog
  metabolites in pooled plasma, urine and fecal homogenate: no metabolites detected
[9]
  NOAEL: 1.05 mg/eye/3× per day
[10]; [26]
  AUC: 183 µg·h/mL
  Cmax: 314 µg/mL
[10]; [27]
  time of return of tear concentration to baseline: ≤ 4 h
  time to maximal mean tear concentration: ≤ 30 min
[11]; BID and TID
  accumulation in tear with multiple ocular dose administration: no obvious evidence of accumulation
[11]; dosing day 1, maintained throughout the trial
  tear AUC and Cmax values: Dose related increases
[12]
  serum level after dermal dosing: detectable in serum
[13]; 10.0 mg/kg IV, 1 minute to 6 hours postdose in 2/6 animals at each time point
  CNS observation: Transient miosis
[13]; single bolus IV
  effect on any other CNS parameters: No effect
[14]; 0.105 mg
  AUC: 18900 ng·h/mL
  Cmax: 34000 ng/mL
[14]; 0.35 mg
  AUC: 18900 ng·h/mL
  Cmax: 21500 ng/mL
[15]
  NOAEL: 1.05 mg/eye/3× per day
[16]; ethanol/glycol/transcutol solution
  solubility: 10 % (w/w)
[16]; water/glycol/transcutol solution
  solubility: 2 % (w/w)
[17]
  Compound 12 in dermis: greater than 10 micromolar
  dose penetration: 2-4%
